Measurements taken from ChEMBL document CHEMBL1201862, “PubChem BioAssay data set” (2004).
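Protocol summary: plate cells (96-well), add compound at 5 concentrations, incubate 48 h, interpolate endpoints linearly. GI50 = concentration required for 50% inhibition of growth.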 Active and inactive are the calls of the source. Cut-off read from the data, not from the text of the source: active = GI50 up to about 1.1 µM and inactive = higher. Square brackets hold non-standard residues; d marks the D form. Peptide text beside a SMILES is read from it. * marks the point of attachment. Tyr(3-Br) = N[C@@H](Cc1ccc(O)c(Br)c1)C(=O)O; Boc = CC(C)(C)OC(=O)*

Tests used:
Assay in all cases: NCI tumour cell line growth inhibition, 48 h
[1] = test system: HCT-116
[2] = test system: K562
[3] = test system: IGROV-1
[4] = test system: 786-0
[5] = test system: A549
[6] = test system: MOLT-4
[7] = test system: SK-MEL-2
[8] = test system: RPMI-8226
[9] = test system: HCC 2998
[10] = test system: CCRF-CEM
[11] = test system: U-251
[12] = test system: Malme-3M
[13] = test system: NCI-H522
[14] = test system: HCT-15
[15] = test system: SK-MEL-28
[16] = test system: SK-OV-3
[17] = test system: M14
[18] = test system: A498
[19] = test system: MDA-MB-231
[20] = test system: MDA-N

Row | SMILES | GI50 [1] | GI50 [2] | GI50 [3] | GI50 [4] | GI50 [5] | GI50 [6] | GI50 [7] | GI50 [8] | GI50 [9] | GI50 [10] | GI50 [11] | GI50 [12] | GI50 [13] | GI50 [14] [µM] | GI50 [15] | GI50 [16] | GI50 [17] | GI50 [18] | GI50 [19] | GI50 [20]
1 | Cc1cc(C2CCCCC2)n(O)c(=O)c1 [CICLOPIROX OLAMINE] | 3.7 µM (inactive) | 3.41 µM (inactive) | 3.46 µM (inactive) | 9.48 µM (inactive) | 3.91 µM (inactive) | 1.93 µM (inactive) | 21.3 µM (inactive) | 3.56 µM (inactive) | 4.97 µM (inactive) | 1.1 µM (active) | 0.498 µM (active) | 15.7 µM (inactive) | 2.96 µM (inactive) | 4.39 | 12.6 µM (inactive) | 47 µM (inactive) | 14.2 µM (inactive) | 14.7 µM (inactive) | – | –
2 | CC(=O)Nc1sccc1S(=O)(=O)c1ccc(Cl)cc1 | > 100 µM (inactive) | > 100 µM (inactive) | > 100 µM (inactive) | > 100 µM (inactive) | > 100 µM (inactive) | > 100 µM (inactive) | > 100 µM (inactive) | > 100 µM (inactive) | > 100 µM (inactive) | > 100 µM (inactive) | > 100 µM (inactive) | > 100 µM (inactive) | > 100 µM (inactive) | > 100 | > 100 µM (inactive) | > 100 µM (inactive) | > 100 µM (inactive) | – | > 100 µM (inactive) | –
3 | O=C(Cn1cc(-c2ccccc2)nn1)NC1CCCC1 | > 100 µM (inactive) | > 100 µM (inactive) | > 100 µM (inactive) | > 100 µM (inactive) | > 100 µM (inactive) | > 100 µM (inactive) | > 100 µM (inactive) | > 100 µM (inactive) | > 100 µM (inactive) | > 100 µM (inactive) | > 100 µM (inactive) | > 100 µM (inactive) | > 100 µM (inactive) | > 100 | > 100 µM (inactive) | – | > 100 µM (inactive) | – | > 100 µM (inactive) | –
4 | COc1ccccc1NC(=O)C(CC(C(=O)Nc1ccccc1OC)/C(C)=N/Nc1ccc([N+](=O)[O-])cc1[N+](=O)[O-])/C(C)=N/Nc1ccc([N+](=O)[O-])cc1[N+](=O)[O-] (stereo unspecified) | > 59.3 µM (inactive) | > 65.9 µM (inactive) | 54.5 µM (inactive) | > 100 µM (inactive) | > 65.5 µM (inactive) | 1.7 µM (inactive) | > 100 µM (inactive) | 63.1 µM (inactive) | > 82 µM (inactive) | 63.5 µM (inactive) | > 100 µM (inactive) | > 100 µM (inactive) | > 73.1 µM (inactive) | > 91.6 | > 83.2 µM (inactive) | > 92.7 µM (inactive) | 40.4 µM (inactive) | 51.1 µM (inactive) | – | –
5 | CCN(C(=N)C#N)c1ccccc1 | > 60.4 µM (inactive) | > 75.5 µM (inactive) | > 100 µM (inactive) | > 41.9 µM (inactive) | > 100 µM (inactive) | > 100 µM (inactive) | > 100 µM (inactive) | > 100 µM (inactive) | > 100 µM (inactive) | > 54.5 µM (inactive) | 65.9 µM (inactive) | > 100 µM (inactive) | > 100 µM (inactive) | > 45.4 | > 100 µM (inactive) | > 100 µM (inactive) | > 100 µM (inactive) | > 100 µM (inactive) | – | –
6 | NC1(C(=O)O)CCC(C(=O)O)CC1 (stereo unspecified) | > 100 µM (inactive) | > 100 µM (inactive) | > 100 µM (inactive) | > 100 µM (inactive) | > 100 µM (inactive) | > 100 µM (inactive) | > 100 µM (inactive) | > 100 µM (inactive) | > 100 µM (inactive) | > 100 µM (inactive) | > 100 µM (inactive) | > 100 µM (inactive) | > 100 µM (inactive) | – | > 100 µM (inactive) | > 100 µM (inactive) | > 100 µM (inactive) | > 100 µM (inactive) | – | –
7 | O=c1c2ccccc2nc2n1-c1ccccc1SC2 | 47.2 µM (inactive) | 36.7 µM (inactive) | 66.5 µM (inactive) | > 100 µM (inactive) | > 100 µM (inactive) | 21.4 µM (inactive) | > 100 µM (inactive) | 24.3 µM (inactive) | 81.1 µM (inactive) | 38.8 µM (inactive) | 84.7 µM (inactive) | 37.8 µM (inactive) | 20.5 µM (inactive) | 54.1 | 71.3 µM (inactive) | > 100 µM (inactive) | 50.5 µM (inactive) | 47.9 µM (inactive) | – | –
8 | COC(=O)[C@H](Cc1ccc(O)c(Br)c1)NC(=O)[C@H](Cc1ccc(O)cc1)NC(=O)OC(C)(C)C (Boc-Tyr-[Tyr(3-Br)]-OMe) | 45.6 µM (inactive) | > 100 µM (inactive) | 37 µM (inactive) | 41.3 µM (inactive) | > 100 µM (inactive) | 48.2 µM (inactive) | 37 µM (inactive) | 28.4 µM (inactive) | 31.6 µM (inactive) | 23.8 µM (inactive) | – | 24.5 µM (inactive) | – | 21.6 | 34.6 µM (inactive) | > 100 µM (inactive) | 33.1 µM (inactive) | > 100 µM (inactive) | – | > 100 µM (inactive)
